Test results taken from ChEMBL document CHEMBL2034833, “Synthesis of chalcone-amidobenzothiazole conjugates as antimitotic and apoptotic inducing agents” (Bioorg Med Chem, 2012).

Columns and labels:
NCI-H522 = assay: Growth inhibition of human NCI-H522 cells after 48 hrs by sulforhodamine B assay; assay type: functional; settings: NCI-H522, 48 h
COLO 205 = assay: Growth inhibition of human COLO205 cells after 48 hrs by sulforhodamine B assay; assay type: functional; settings: COLO 205, 48 h
HCC 2998 = assay: Growth inhibition of human HCC2998 cells after 48 hrs by sulforhodamine B assay; assay type: functional; settings: HCC 2998, 48 h
HCT-116 = assay: Growth inhibition of human HCT116 cells after 48 hrs by sulforhodamine B assay; assay type: functional; settings: HCT-116, 48 h
HCT-15 = assay: Growth inhibition of human HCT15 cells after 48 hrs by sulforhodamine B assay; assay type: functional; settings: HCT-15, 48 h
HT-29 = assay: Growth inhibition of human HT-29 cells after 48 hrs by sulforhodamine B assay; assay type: functional; settings: HT-29, 48 h
KM12 = assay: Growth inhibition of human KM12 cells after 48 hrs by sulforhodamine B assay; assay type: functional; settings: KM12, 48 h
SW-620 = assay: Growth inhibition of human SW620 cells after 48 hrs by sulforhodamine B assay; assay type: functional; settings: SW-620, 48 h
PC-3 = assay: Growth inhibition of human PC3 cells after 48 hrs by sulforhodamine B assay; assay type: functional; settings: PC-3, 48 h
DU-145 = assay: Growth inhibition of human DU145 cells after 48 hrs by sulforhodamine B assay; assay type: functional; settings: DU-145, 48 h
MCF7 [1] = assay: Growth inhibition of human MCF7 cells after 48 hrs by sulforhodamine B assay; assay type: functional; settings: MCF7, 48 h
MDA-MB-231 = assay: Growth inhibition of human MDA-MB-231 cells after 48 hrs by sulforhodamine B assay; assay type: functional; settings: MDA-MB-231, 48 h
Hs-578T = assay: Growth inhibition of human Hs578T cells after 48 hrs by sulforhodamine B assay; assay type: functional
BT-549 = assay: Growth inhibition of human BT549 cells after 48 hrs by sulforhodamine B assay; assay type: functional; settings: BT-549, 48 h
T47D = assay: Growth inhibition of human T47D cells after 48 hrs by sulforhodamine B assay; assay type: functional
MDA-MB-468 = assay: Growth inhibition of human MDA-MB-468 cells after 48 hrs by sulforhodamine B assay; assay type: functional; settings: MDA-MB-468, 48 h
SF-268 = assay: Growth inhibition of human SF268 cells after 48 hrs by sulforhodamine B assay; assay type: functional; settings: SF-268, 48 h
SF-295 = assay: Growth inhibition of human SF295 cells after 48 hrs by sulforhodamine B assay; assay type: functional; settings: SF-295, 48 h
SF-539 = assay: Growth inhibition of human SF539 cells after 48 hrs by sulforhodamine B assay; assay type: functional; settings: SF-539, 48 h
SNB-19 = assay: Growth inhibition of human SNB19 cells after 48 hrs by sulforhodamine B assay; assay type: functional; settings: SNB-19, 48 h
SNB-75 = assay: Growth inhibition of human SNB75 cells after 48 hrs by sulforhodamine B assay; assay type: functional; settings: SNB-75, 48 h
U-251 = assay: Growth inhibition of human U251 cells after 48 hrs by sulforhodamine B assay; assay type: functional; settings: U-251, 48 h
LOX IMVI = assay: Growth inhibition of human LOXIMVI cells after 48 hrs by sulforhodamine B assay; assay type: functional
Malme-3M = assay: Growth inhibition of human MALME-3M cells after 48 hrs by sulforhodamine B assay; assay type: functional
M14 = assay: Growth inhibition of human M14 cells after 48 hrs by sulforhodamine B assay; assay type: functional; settings: M14, 48 h
MDA-MB-435 = assay: Growth inhibition of human MDA-MB-435 cells after 48 hrs by sulforhodamine B assay; assay type: functional; settings: MDA-MB-435, 48 h
SK-MEL-2 = assay: Growth inhibition of human SK-MEL-2 cells after 48 hrs by sulforhodamine B assay; assay type: functional; settings: SK-MEL-2, 48 h
SK-MEL-28 = assay: Growth inhibition of human SK-MEL-28 cells after 48 hrs by sulforhodamine B assay; assay type: functional; settings: SK-MEL-28, 48 h
SK-MEL-5 = assay: Growth inhibition of human SK-MEL-5 cells after 48 hrs by sulforhodamine B assay; assay type: functional; settings: SK-MEL-5, 48 h
UACC-257 = assay: Growth inhibition of human UACC257 cells after 48 hrs by sulforhodamine B assay; assay type: functional; settings: UACC-257, 48 h
UACC-62 = assay: Growth inhibition of human UACC62 cells after 48 hrs by sulforhodamine B assay; assay type: functional; settings: UACC-62, 48 h
IGROV-1 = assay: Growth inhibition of human IGROV1 cells after 48 hrs by sulforhodamine B assay; assay type: functional; settings: IGROV-1, 48 h
OVCAR-3 = assay: Growth inhibition of human OVCAR3 cells after 48 hrs by sulforhodamine B assay; assay type: functional; settings: OVCAR-3, 48 h
OVCAR-4 = assay: Growth inhibition of human OVCAR4 cells after 48 hrs by sulforhodamine B assay; assay type: functional; settings: OVCAR-4, 48 h
OVCAR-5 = assay: Growth inhibition of human OVCAR5 cells after 48 hrs by sulforhodamine B assay; assay type: functional; settings: OVCAR-5, 48 h
OVCAR-8 = assay: Growth inhibition of human OVCAR8 cells after 48 hrs by sulforhodamine B assay; assay type: functional; settings: OVCAR-8, 48 h
NCI/ADR-RES = assay: Growth inhibition of human NCI/ADR-RES cells after 48 hrs by sulforhodamine B assay; assay type: functional
SK-OV-3 = assay: Growth inhibition of human SKOV3 cells after 48 hrs by sulforhodamine B assay; assay type: functional; settings: SK-OV-3, 48 h
A549 = assay: cells; settings: Homo sapiens, A549, 48 h
Description: Cytotoxicity against human A549 cells after 48 hrs by MTT assay

MCF7 [2] = assay: cells; settings: Homo sapiens, MCF7, 48 h
Description: Cytotoxicity against human MCF7 cells after 48 hrs by MTT assay

GI50 (NCI-H522): 670 nM
GI50 (COLO 205): 6.37 µM
GI50 (HCC 2998): 6.18 µM
GI50 (HCT-116): 1430 nM
GI50 (HCT-15): 400 nM
GI50 (HT-29): 3.66 µM
GI50 (SW-620): 1080 nM
GI50 (PC-3): 3.14 µM
GI50 (DU-145): 1560 nM
GI50 (MCF7 [1]): 1320 nM
GI50 (MDA-MB-231): 2010 nM
GI50 (BT-549): 2710 nM
GI50 (T47D): 3.08 µM
GI50 (MDA-MB-468): 3.52 µM
GI50 (U-251): 700 nM
GI50 (MDA-MB-435): 300 nM
GI50 (SK-MEL-2): 4.97 µM
GI50 (SK-MEL-28): 3.31 µM
GI50 (SK-MEL-5): 2030 nM
GI50 (OVCAR-3): 1520 nM
GI50 (OVCAR-4): 2070 nM
GI50 (OVCAR-5): 4.76 µM
GI50 (OVCAR-8): 1540 nM
GI50 (SK-OV-3): 2160 nM
IC50 (A549): 900 nM
IC50 (MCF7 [2]): 3.3 µM
Structure (SMILES): COc1ccc(/C=C/C(=O)c2cc(OC)c(OC)c(OC)c2)cc1OCC(=O)Nc1nc2ccc(OC(F)(F)F)cc2s1
GI50 (KM12): 1510 nM
GI50 (Hs-578T): 3.08 µM
GI50 (SF-268): 1200 nM
GI50 (SF-295): 2210 nM
GI50 (SF-539): 300 nM
GI50 (SNB-19): 1580 nM
GI50 (SNB-75): 340 nM
GI50 (LOX IMVI): 470 nM
GI50 (Malme-3M): 2690 nM
GI50 (M14): 1720 nM
GI50 (UACC-257): 8.08 µM
GI50 (UACC-62): 9.52 µM
GI50 (IGROV-1): 2540 nM
GI50 (NCI/ADR-RES): 490 nM
